Test results published in patent US20260234630A1, “Methods for Treating Multiple Myeloma” (Celgene Corporation, priority 2022, published 2026).

Key:
Format in all cases: cell-based
UHRF1 mRNA = test: qRT-PCR of UHRF1 gene expression in MM cells
Experimental: (§1) FIG. 1A-1F. Down regulation of UHRF1 transcription by IMiDs correlates with drug sensitivity of multiple myeloma. (1A) Volcano plot of protein expression changes determined by mass spectrometry in H929 cells at 24 hr of treatment with CC-220 (0.1 μM) or DMSO control. X axis, Log2fold change (FC); Y axis, significance,-log 10 [p-value]. […] (1B) Volcano plot of gene expression changes determined by Affymetrix microarray in H929 cells treated with POM (1 μM) or DMSO for 24 hr. X axis, Log2fold change (FC); Y axis, significance,-log 10 [p-value], n=2 technical replicates). […] (1C) Western blot analysis protein expression of UHRF1, Ikaros, Aiolos and ZFP91 in H929 cells treated with 1 μM POM for indicated time. (1D) qRT-PCR analysis of UHRF1 gene expression levels in cells as in (1C). Error bars represent the SEM from duplicate measurements. (1E) Western blot analysis protein expression of UHRF1 and indicated proteins in MM cells treated with DMSO (−) or 1 μM POM (+) for 3 days. GAPDH serves as a loading control. (1F) Thymidine incorporation of various MM cell lines treated with indicated dose of POM for 3 days. Error bars represent the SEM from technical replicates.
FIG. 2A-2E. UHRF1 expression is positively regulated by Ikaros and Aiolos in IMiDs sensitive MM cells. (2A) Western blot analysis protein expression of UHRF1, Ikaros, Aiolos, ZFP91 and Cereblon expression in control [shLuciferase (shLuc)] and cereblon knockdown (shCRBN) H929 cells treated with DMSO and 1 μM POM for 3 days. GAPDH, loading control. Arrow head, UHRF1. (2B) qRT-PCR analysis of UHRF1 gene expression levels in cells as in (2A). Data was normalized to ACTB. Error bars represent the SEM of technical duplicates. *** P<0.001 (Two-tailed unpaired Student's t-test). (2C) Western blot analysis protein expression of UHRF1, Ikaros and Aiolos in stably transduced H929 cells after Dox induction (0, 10, 50 or 100 ng/ml) for 3 days of non-target shRNA (shNT) or shRNAs targeting Ikaros (shIKZF1) or Aiolos (shIKZF3). (2D) qRT-PCR analysis of UHRF1 gene expression levels in cells as in (2C). Shown are cells induced with Dox (50 ng/ml) for 3 days. Data was normalized to GAPDH. Error bars represent the SEM of technical duplicates. *P<0.05, ** P<0.01, *** P<0.001, **** P<0.0001 (Two-tailed unpaired Student's t-test). (2E) ChIP-qPCR analysis of the occupancy Aiolos (upper panel) or H3K27ac (lower panel) occupancy at transcription star site (TSS), gene body (+7 kb) and gene end (GE) of UHRF1 gene in H929, MM1.S or RPMI 8226 cells treated with DMSO or 1 μM POM for 24 hr. ChIP with control rabbit IgG (IgG) serves as a negative control. Error bars represent the SEM of technical triplicates. * P<0.05, ** P<0.01, **** P<0.0001 (Two-tailed unpaired Student's t-test).
FIG. 6A-6D. […] (6A) Immunocytochemistry assay of UHRF1 in H929 cells treated with DMSO or 1 μM POM for 48 hrs. (6B) qRT-PCR analysis of UHRF1 gene expression levels in indicated MM cells treated with indicated doses of POM for 3 days. Data was normalized to ACTB. Error bars represent the SEM from duplicate measurements. * P<0.05, ** P<0.01, *** P<0.001, **** P<0.0001 (Two-tailed Student's t-test). […]
Total RNA was extracted by RNeasy Mini Kit (Qiagen) and reverse transcribed by iScrip cDNA Synthesis Kit (Bio-rad). Quantitative real-time PCR (qPCR) was conducted on a VillA 7 System using the Power SYBR Green PCR Master Mix (Applied Biosystems). Gene expression values were calculated by normalization to Actb using the comparative CT method.

[1] = system: multiple myeloma (MM) cells; test: (3H)-thymidine incorporation assay of MM cell lines; conditions: POM 3 days
Experimental: as §1
(3H)-thymidine incorporation assay was performed as previously described (PMID: 23252516) with minor modifications. Briefly, 1×10^4 or 2×10^5 multiple myeloma (MM) cells were cultured in 96-well culture plates in complete media with the indicated concentration of pomalidomide (POM) or DMSO control for 3 days. 37 kBg (3H)-thymidine was added to each will at the final 6 hour of incubation.

H929 cells = test: Gene expression changes by Affymetrix microarray in H929 cells; conditions: POM 1 μM, 24 hour
Experimental: as §1
Given that UHRF1 has been reported to be oncogenic in other cancer types, including MM (Gu et al., 2020, BMC Biol, 18:33), the functions of UHRF1 in MM and the mechanisms underlying its gene regulation in response to immunomodulator drugs that binds to cereblon was explored.

Nc1cccc2c1C(=O)N(C1CCC(=O)NC1=O)C2=O (centres unmarked) [POM, pomalidomide]
UHRF1 mRNA (UHRF1 mRNA; H929, MM1.S and U266 cells, indicated doses of POM, 3 days): dose dependent downregulation
time to profound reduction of UHRF1 mRNA level (UHRF1 mRNA; H929 cells, POM 1 μM, time course): up to 24 hours
UHRF1 gene expression (UHRF1 mRNA; drug sensitive MM (FIG. 6 title)): downregulated
downregulation of UHRF1 mRNA by POM under cereblon knockdown (UHRF1 mRNA; shCRBN vs shLuc H929 cells, 1 μM POM, 3 days): rescue
drug sensitivity of cell lines ([1]; H929, MM1.S, DF15 and U266): sensitive
drug sensitivity of cell lines ([1]; H929 PR and DF15 PR (diminished cereblon expression)): acquired resistance
drug sensitivity of cell line ([1]; MC/CAR): less sensitive
drug sensitivity of cell line ([1]; RPMI 8226): intrinsically resistant
UHRF1 gene expression (microarray) (H929 cells): one of the most significantly downregulated genes
expression of interferon response genes IFIT1 and IFIT3 (H929 cells): drastic induction
gene expression of cell cycle regulators E2F1, MYB and CDC45 (H929 cells): most significantly downregulated genes
